According to patent publication US10359433B2, “BAG3 as biochemical serum and tissue marker” (BIOUNIVERSA S.R.L., priority 2012, dated 2019):

Columns and labels:
J774 A.1 cells [1] = assay: FACS competition assay: FITC-rBAG3 binding to J774 A.1 cells with BAG3 peptides or F(ab′)2 fragments; assay type: cell-based, murine; settings: 14 nM FITC-BAG3, 625 nM of BAG3 peptides
Procedure: (§1) We addressed the functional significance of BAG3 release by cardiomyocytes. […] Therefore we investigated whether BAG3 could interact with blood cells. […] BAG3 binding to macrophages was specifically impaired by competing BAG3 peptides or by BAG3-sequestering F(ab′)2 fragments from anti-BAG3 monoclonal antibodies (Table I). In particular J774 cells were incubated with 14 nM FITC-BAG3 protein and with 625 nM of BAG3 peptides (peptide 1, peptide 2, peptide 3, peptide 4 or scrambled peptide) or with 420 nM of F(ab′)2 fragments from anti-BAG3 monoclonal and polyclonal antibodies (mouse monoclonal AC1, AC2 and rabbit polyclonal TOS2). F(ab′)2 fragments from mouse IgG or F(ab′)2 fragments from rabbit IgG were used as a negative control.
Competition—J774 A.1 cells (2.5×105/100 μl) were incubated with 625 nM of BAG3 peptides (peptide 1, peptide 2, peptide 3, peptide 4 or scrambled peptide) or with 420 nM of F(ab′)2 fragments from anti-BAG3 monoclonal and polyclonal antibodies (mouse monoclonal AC1, AC2 and rabbit polyclonal TOS2) or F(ab′)2 fragments from mouse IgG or F(ab′)2 fragments from rabbit IgG in PBS containing 2% FBS+0.1% NaN3 for 30 min on ice. After incubation the cells were washing with PBS and then were incubated with of FITC-rBAG3 protein (14 nM), in PBS containing 2% FBS+0.1% NaN3 for 30 min at 4° C. in the dark. After washing with PBS, the cells were resuspended in PBS+2% FBS+0.1% NaN3 and analyzed by flow cytometer (BD Biosciences).

J774 A.1 cells [2] = assay: FACS analysis of FITC-rBAG3 binding to J774 A.1 macrophages; assay type: cell-based, murine
Procedure: FIG. 3B: BAG3 binds macrophages. J774 A1 macrophages (1×10^6 cells/ml) were incubated with different concentration of Fitc-BAG3 protein (7, 14 and 70 nm). FITC-BSA (70 nM) was used as a negative control (grey). Cells fluorescence was analyzed by flow cytometry.
as §1
rBAG3 binding—J774 A.1 cells were blocked with 2% FBS+0.1% NaN3 in PBS for 15 min on ice and incubated (2.5×105/100 μl) with different concentration of FITC-rBAG3 protein (7, 14 and 70 nm) or FITC-BSA (70 nM) in PBS containing 2% FBS+0.1% NaN3 for 30 min at 4° C. in the dark. After washing with PBS, the cells were resuspended in PBS+2% FBS+0.1% NaN3 and analyzed with a FACScan (BD Biosciences) flow cytometer.

J774 A1 macrophages [3] = assay: Cox-2 and iNOS levels in J774 A1 macrophages incubated with BAG3 (western blot); assay type: cell-based, murine; settings: BAG3-treated macrophages, 20 hours, FIG. 3C panel a
Procedure: FIG. 3C panel a—Analysis of Cox-2 and iNOS levels in J774 A1 macrophages incubated with BAG3. J774 A1 cells at 80% confluency were incubated with control medium, BSA, LPS or rBAG3, for 20 hours. Polymixin was added where indicated to verify that the effects of E. coli-derived rBAG3 were independent from the presence of contaminating endotoxin. Cox-2 and iNOS expression were analyzed in cell lysates by Western blotting. To explore functional consequences of BAG3 binding to macrophages, we tested the effect of recombinant BAG3 on the expression of inducible nitric oxide synthase (iNOS) and cyclooxygenase (Cox)-2 in the cells. As shown in FIG. 3C panel a the levels of those enzymes were enhanced in BAG3-treated macrophages. […] Soluble proteins were collected after a centrifugation at 10,000 g for 15 min and their amount was determined by Bradford assay (Bio-Rad, Hercules, Calif.). […] Immunoreactivity was detected by sequential incubation with horseradish peroxidase-conjugated secondary antibodies purchased from Pierce (Rockford, Ill.) and ECL detection reagents purchased from Amersham Life Sciences Inc. (Arlington Heights, Ill., USA).

J774 A1 macrophages [4] = assay: Nitrite release from J774 A1 macrophages (Griess reaction); assay type: cell-based, murine; settings: J774 A1, 24 hours, FIG. 3C panel b
Procedure: FIG. 3C panel b—Analysis of nitrite release from J774 A1 macrophages incubated with BAG3. J774 A1 cells at 80% confluency were incubated with control medium, BSA, LPS or rBAG3 for 24 hours. 100 μl of supernatants from each sample were incubated with 100 μl of Griess reagent; the optical density at 550 nm (OD550) was measured with a Beckman DU62 spectrophotometer. Nitrite concentration was evaluated by comparing the OD550 of the sample with that of a standard curve of sodium nitrite. Nitrite content (NO2^−), a stable metabolite of NO released by cells in the culture supernatant, was measured in J774 A.1 cells (5×104/in 96-well microplates) treated with LPS (10 ng/ml) or with rBAG3 (7, 14 and 28 nM) or BSA (28 nM) for 24 hours in absence or presence of polymyxin B sulfate (Sigma-Aldrich, St. Louis, Mo., USA) 5 μg/ml. NO2^− amounts were measured by Griess reaction. Briefly, 100 μL of cell culture medium were mixed with 100 μL of Griess reagent—equal volumes of 1% (w:v) sulphanilamide in 5% (v:v) phosphoric acid and 0.1% (w:v) naphtylethylenediamine-HCl—and incubated at room temperature for 10 min, and then the absorbance was measured at 550 nm in a microplate reader Titertek (Dasit, Cornaredo, Milan, Italy). The amount of NO2- (as μM) in the samples was calculated from a sodium nitrite standard curve.

J774 A1 macrophages [5] = assay: IL-6 release from J774 A1 macrophages (ELISA); assay type: cell-based, murine; settings: J774 A1, FIG. 3C panel c
Procedure: FIG. 3C panel c—Analysis of IL-6 release from J774 A1 macrophages incubated with BAG3. J774 A1 cells at 80% confluency macrophages were incubated with control medium, BSA, LPS or recombinant BAG3 for 5 hours. BAG3 peptides (peptide 1, peptide 2, peptide 3, peptide 4 or scrambled peptide) 625 nM were added where indicated to verify their ability to block BAG3 activity. IL-6 production was measured in cell culture medium using an ELISA test. IL-6 concentration was evaluated by comparing the OD of the sample with that of a standard curve of recombinant IL-6. IL6 was measured in supernatant of J774 A.1 cells (5×10^4/in 96-well microplates) treated with LPS (10 ng/ml) or with rBAG3 (14 nM) or BSA (14 nM) for 10 or 20 hours in absence or presence of polymyxin B sulfate (5 μg/ml). After treatment 50 μL of cell culture medium were collected and analyzed in triplicate with a mouse IL6 Kit (eBioscience).

HCMa cells = assay: Confocal direct fluorescence, rBAG3-FITC binding to cardiomyocytes; assay type: cell-based, human; settings: FIG. 3A, result in words
Text: FIG. 3A: Confocal microscopy analysis of direct fluorescence performed for detection of rBAG3-FITC binding to HCMa cells (a, b, c) and J774 A1 cells (d, e, f, g, h, i). BAG3 recombinant protein and purified BSA (albumin from bovine serum purchased from SIGMA) were conjugated to FITC using the FluoroTag FITC Conjugation Kit purchased from SIGMA following the manufacturer instructions. Equal amount of rBAG3-FITC (b, e) and BSA-FITC (h) proteins, calculated following the manufacturer instructions, were added in HCM and J774 A1 culture media with 0.1% NaN3 […] (a, d, g). Cells were analyzed by a Zeiss LSM confocal microscope. Merged images are shown in c, f and i.
We addressed the functional significance of BAG3 release by cardiomyocytes. […]
Cells were cultured on coverslips in six-well plates to 60-70% confluence and equal amount of rBAG3-FITC and BSA-FITC proteins were added in HCMa and J774 A1 culture media with 0.1% NaN3 for 1 h. […] Samples were analyzed using a confocal laser scanning microscope (Zeiss LSM confocal microscope, Germany). […] For production of figures, brightness and contrast of images were adjusted by taking care to leave a light cellular fluorescence background for visual appreciation of the lowest fluorescence intensity features and to help comparison among the different experimental groups. […]

Substance	Competiton assays % inhibition (J774 A.1 cells [1]) [%]	Competiton assays % of positive cells (±S.D.) (J774 A.1 cells [1])	also measured
DKGKKNAGNAEDPHT (listed as Homo sapiens) [Pep3, 13]	47.2	5.86 (±0.43) %	
FITC-BSA: purified albumin from bovine serum conjugated to FITC, negative control			FITC-BSA % of positive cells (±S.D.) (J774 A.1 cells [2]; J774 cells, flow cytometry, negative control): 4.04 (±0.06) %
recombinant BAG3: E. coli-derived recombinant BAG3 protein; human BAG3 is SEQ ID NO:15			expression of inducible nitric oxide synthase (iNOS) and cyclooxygenase (Cox)-2 (J774 A1 macrophages [3]): enhanced; release of nitrite (J774 A1 macrophages [4]): induced the release; release of interleukin (IL)-6 (J774 A1 macrophages [5]): induced the release
NPSSMTDTPGNPAAP (listed as Homo sapiens) [Pep4, 14]	93.8	0.68 (±0.20) %	
FITC-rBAG3: BAG3 recombinant protein conjugated to FITC			binding to the cardiomyocyte surface (HCMa cells): did not apparently bind; binding to macrophages of the cell line J774 (J774 A.1 cells [2]; FIG. 3B, result in words): bound; FITC-rBAG3 % of positive cells (±S.D.) (J774 A.1 cells [2]; J774 cells, flow cytometry): 15.7 (±0.45) %
DRDPLPPGWEIKIDPQ (listed as Homo sapiens) [Pep1, 11]	98.4	0.18 (±0.05) %	
SSPKSVATEERAAPS (listed as Homo sapiens) [Pep2, 12]	89.1	1.21 (±0.63) %	
